Measured values reported in PMC12817916, “A small-molecule HSP90 inhibitor, NVP-HSP990, alleviates rotavirus infection” (Journal of Virology, 2025).

Legend:
RV (Wa or SA11 strains) = test: RV replication in Caco-2 cells at varying MOI and timing of drug addition (PFA); type: cell-based, Rotavirus
Method: Rhesus monkey embryo kidney cell line MA104 cells (ATCC: CRL-2378.1) were provided by Dr. Elschner (Friedrich-Loeffler-Institute). Human intestinal epithelial cell lines Caco-2 cells (ATCC: HTB-37) and HT-29 cells (ATCC: HTB-38) were from ATCC and kept in our institute. All the cells were cultured in complete DMEM (Dulbecco’s modified Eagle medium [Gibco, USA] plus 10% [vol/vol] fetal bovine serum [FBS] [Gibco, USA] and 1% penicillin/streptomycin [Gibco, USA]) at 37°C with 5% CO2. RV Wa (G1P[8]) and SA11 (G3P[2]) strains were gifted by Professor Duan Zhaojun from the China Center for Disease Control and Prevention (Beijing, China) and propagated in MA104 cells. RV EDIM strain G16P[16] was gifted by Professor Wan Jianwei in Christophe Merieux Laboratory (Beijing) and propagated in BALB/c suckling mice. For RV infection in vitro, the viruses were diluted in DMEM, activated with 10 µg/mL trypsin (Gibco, USA) for 30 min at 37°C, and then added to target cells previously washed once with DMEM. After 1 h of incubation at 37°C, the inoculum was removed; the cells were then washed twice with DMEM (without FBS) and incubated with DMEM (without FBS) at 37°C, which was denoted as 0 h post-infection (h p.i.). HSP90 inhibitors (NVP-HSP990, GA, and 17-AAG) and Ribavirin (Selleck, USA) were dissolved in DMSO (Sigma, USA). The drugs were administered with indicated concentrations at 0 h p.i. in vitro unless otherwise stated, or orally administered in 10 µL volume using a pipette tip with the indicated quantity plus 90% (vol/vol) corn oil.
(A) Caco-2 cells were infected with RV (Wa or SA11 strains) at varying MOIs (0.001–10), followed by treatment with 100 nM NVP-HSP990 or an equal volume of DMSO (as a control) for 24 h. Viral replication was assessed using PFA. (B) Schematic diagram illustrating the timing of NVP-HSP990 addition and removal. (C) Caco-2 cells were infected with RV (MOI = 1) and treated with 100 nM NVP-HSP990 or with DMSO as control at indicated infection periods as shown in panel B. Viral replication was tested with PFA at 20 h p.i. (D) Caco-2 cells were infected with RV (MOI = 1) and treated with 100 nM HSP990 at 0, 4, 8, 12 h p.i. or treated with DMSO at 0 h p.i. Virus replication was tested with PFA at 24 h p.i. (E) Caco-2 cells were infected with RV (MOI = 1) and further cultivated with DMEM containing 100 nM NVP-HSP990 or DMSO as control for 18 h. Then the infected cells were harvested for qPCR analysis of the expression of RV genes encoding the VP2, VP6, NSP4, and NSP5 proteins. (F) Caco-2 cells were mock-infected with PBS or infected with RV (MOI = 1) and further cultivated with DMEM containing 100 nM NVP-HSP990 or DMSO as control for 18 h. Then the cells were harvested for WB analysis of RV structural proteins VP6 and VP7. […]

HSP90β = settings: targets the N-terminal of HSP90β; cited from earlier work

## COc1cccc(-c2cc(F)ccc2[C@H]2Cc3nc(N)nc(C)c3C(=O)N2)n1 [NVP-HSP990]
RV (Wa or SA11 strains); 100 nM, administered after RV infection (0 ~ 20 h p.i.), PFA at 20 h p.i.
  inhibitory effect on RV replication: ~100 fold
RV (Wa or SA11 strains); 100 nM, administered during RV infection (−1 ~ 0 h p.i.), PFA at 20 h p.i.
  reduction of final level of RV replication: ~ 1 fold
RV (Wa or SA11 strains); Wa or SA11, MOI 0.001 to 10, 100 nM, 24 h p.i., PFA
  inhibition of RV replication across MOIs: Robust inhibition
RV (Wa or SA11 strains); pre-treatment prior to RV infection (−2 ~ −1 h p.i.)
  establishment of RV infection or subsequent viral replication: did not significantly interfere
HSP90β
  IC50: 0.8 nM
